Values joined by “and” are separate entries in the source; they are usually repeats but may differ in a detail not shown here. Equal values may be shown once.
Tests used:
[1] = biological target: T1, COX-2 (Homo sapiens, UniProt P35354); test: COX-2 inhibitory screening assay (Cayman kit); type: biochemical; details: for Increase in COX-2 inhibitory efficiency by duplicating the concentration: % inhibition at 0.200 mg/mL divided by % inhibition at 0.100 mg/mL; for inhibition at 100 µg/mL: at 0.100 mg/mL; for inhibition at 100 µg/mL / inhibition at 200 µg/mL: read-out: COX-2 mean % inhibition ± SD; for inhibition at 200 µg/mL: at 0.200 mg/mL
T1 construct: purchased Cayman Chemical Company 701080
T1 sequence (P35354 18-604): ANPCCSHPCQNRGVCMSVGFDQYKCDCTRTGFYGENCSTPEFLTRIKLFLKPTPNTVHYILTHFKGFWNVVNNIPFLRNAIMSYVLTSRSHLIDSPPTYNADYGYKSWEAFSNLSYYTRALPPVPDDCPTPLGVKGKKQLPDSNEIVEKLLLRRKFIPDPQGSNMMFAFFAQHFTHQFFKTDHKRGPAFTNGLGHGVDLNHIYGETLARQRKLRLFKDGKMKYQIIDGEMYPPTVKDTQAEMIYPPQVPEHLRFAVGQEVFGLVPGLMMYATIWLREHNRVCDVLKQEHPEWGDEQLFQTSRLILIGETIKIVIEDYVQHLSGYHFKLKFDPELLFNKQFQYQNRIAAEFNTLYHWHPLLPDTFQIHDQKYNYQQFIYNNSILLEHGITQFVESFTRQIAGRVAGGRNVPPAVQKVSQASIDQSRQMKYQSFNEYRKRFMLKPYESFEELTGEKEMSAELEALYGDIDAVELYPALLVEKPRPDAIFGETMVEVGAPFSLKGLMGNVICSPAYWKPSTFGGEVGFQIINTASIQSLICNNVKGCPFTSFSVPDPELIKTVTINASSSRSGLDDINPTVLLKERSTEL
Method in brief: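 Human COX-2 with heme preincubated with compound 10 min at 37° C in Tris-HCl pH 8.0 with phenol and EDTA, then arachidonic acid added for 2 min at 37° C. PGF2α, formed by stannous chloride reduction, quantified by enzyme immunoassay at 410 nm; % inhibition versus untreated control.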

[2] = tested on: LoVo human colon carcinoma cells; test: Viability assay (LDH release), LoVo; type: cell-based; details: for viability at 200 µg/mL: 48 h, read-out: Mean % of viable cells ± SD, LoVo; for IC50: from concentration–response curves
Method in brief: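 LoVo human colon carcinoma cells were grown for 24 h at 37 °C in a humidified 5% CO2 incubator in Dulbecco's Modified Eagle's Medium containing 10% FBS, then exposed to test samples for 48 h. Lactate dehydrogenase released into the supernatant was measured by ELISA end-point assay at 550 nm, using 0.1% Triton X-100 as positive control and medium alone as negative control. Viability was reported as mean % ± SD (n = 3) and compared against HUVEC cells.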

Row | Compound | Increase in COX-2 inhibitory efficiency by duplicating the concentration [1] | inhibition at 100 µg/mL [1] | inhibition at 200 µg/mL [1] | IC50 ([1]; mean ± SD of three replicates) | viability at 200 µg/mL ([2]; Homo sapiens, LoVo) | IC50 ([2]; Homo sapiens, LoVo) | IC50 [2]
1 | O=c1c2cc(Cl)ccc2[nH]c(=S)n1-c1cccc(C(F)(F)F)c1 [Compound 3a, 6-Chloro-2-thioxo-3-(3-trifluoromethyl-phenyl)-2,3-dihydro-1H-quinazolin-4-one] | 1.70 fold | 57 ± 2.83% | 97 ± 1.34% | 281 µM | 23.5 ± 1.5% | 294 µM and 105 µg/mL | 294 µM
2 | O=c1c2cc(Cl)ccc2[nH]c(=S)n1-c1ccc([N+](=O)[O-])cc1 [Compound 3f, 6-Chloro-3-(4-nitro-phenyl)-2-thioxo-2,3-dihydro-1H-quinazolin-4-one] | 2.34 fold | 11.4 ± 0.778% | 26.8 ± 3.89% | – | 22.7 ± 2.08% | 384 µM and 128 µg/mL | 384 µM
